Experiments:
clinical = experiment: clinical
Protocol: This was an open-label, three-period, controlled before-and-after trial (China Clinical Trial Registry: ChiCTR1900024344). It was conducted at the Second Affiliated Hospital within Tianjin University of Traditional Chinese Medicine (Tianjin, China). The protocol was approved by the ethics committees of the Second Affiliated Hospital within Tianjin University of Traditional Chinese Medicine. Written informed consent was provided by all participants. This trial was in accordance with the Declaration of Helsinki 1964 and its later amendments.
Men and women aged 18–45 years participated in this trial if they were healthy and the EPHX1 A/A genotype was confirmed. The key exclusion criteria were coagulation disorders or allergies to drugs.
Our trial comprised three periods. […] After 3 days, individuals entered the second period, in which CDDP (10 pills, p. o., t.d.s.) was administered for 5 days.
Moreover, blood samples were taken from participants once a day before CDDP administration for assays of coagulation indices to ensure safety.

[1] = tested on: transfected EPHX1 A/G and BL cells; experiment: MTT cell viability of transfected cells; assay type: cell-based, human; settings: 0.0625–8.00 mg/mL for 24 h or 72 h, dose-dependent
Protocol: CDDP was manufactured by Tianjin Tasly Group (Tianjin, China). […] Transfected cells were plated evenly on a 96-well cell-culture plate with ∼8,000 cells/well. They were cultured for 24 h at 37°C. […] Subsequently, to each well was added 10 µL of 3-(4,5-Dimethylthiazol-2-yl)-2,5-diphenyltetrazolium bromide solution (5 mg/mL), and cells were allowed to incubate for an additional 4 h in an atmosphere of 5% CO2 at 37°C. Then, the cells were centrifugated and the […]. Finally, the blue-purple crystals were dissolved using dimethyl sulfoxide (150 µL) with agitation for 10 min. The absorbance of each well was determined at 490 nm. Cell viability (Supplementary Figure S1) was calculated according to the formula: Cell viability=absorbanceexperiment/absorbancecontrol×100%
Thus, the incubation time selected at 24 h.

[2] = by dose adjustment (residual drug converted into a dose), third period: warfarin + CDDP
[3] = by dose adjustment, first period: warfarin 3 mg p.o. alone
[4] = first period: warfarin 3 mg p.o. alone, HVs EPHX1 A/A
[5] = third period: warfarin 3 mg p.o. + CDDP 10 pills p.o., HVs EPHX1 A/A

Compound | AUC0-144 (clinical; [2]) | Cmax (clinical; [2]) | Tmax (clinical; [2]) | Vd (clinical; [2]) | AUC0-144 (clinical; [3]) | CL (clinical; [3]) | Cmax (clinical; [3]) | Tmax (clinical; [3]) | Vd (clinical; [3]) | AUC0-144 (clinical; [4]) | CL (clinical; [4]) | Cmax (clinical; [4]) | Tmax (clinical; [4]) | Vd (clinical; [4]) | AUC0-144 (clinical; [5]) | CL (clinical; [5]) | Cmax (clinical; [5]) | Tmax (clinical; [5]) | Vd (clinical; [5]) | also measured
CC(=O)C[C@H](c1ccccc1)c1c(O)c2ccccc2oc1=O [R-Warfarin] | 14594 ± 3088 ng/h/mL | 273.9 ± 58.10 ng/mL | 0.7143 ± 0.3934 h | 18445 ± 2408 mL | 11630 ± 2938 ng/h/mL | 210.3 ± 57.13 mL/h | 204.6 ± 71.38 ng/mL | 1.857 ± 1.435 h | 20505 ± 4506 mL | 11630 ± 2938 ng/h/mL | 210.3 ± 57.13 mL/h | 204.6 ± 71.38 ng/mL | 1.857 ± 1.435 h | 20505 ± 4506 mL | 14594 ± 3088 ng/h/mL | 164.8 ± 51.16 mL/h | 273.9 ± 58.10 ng/mL | 0.7143 ± 0.3934 h | 16283 ± 2164 mL | 
CC(=O)C[C@@H](c1ccccc1)c1c(O)c2ccccc2oc1=O [S-Warfarin] | 7223 ± 1727 ng/h/mL | 261.9 ± 54.50 ng/mL | 0.714 ± 0.393 h | 32429 ± 3754 mL | 5812 ± 1632 ng/h/mL | 466.0 ± 109.7 mL/h | 199.0 ± 76.90 ng/mL | 1.500 ± 1.414 h | 37594 ± 9569 mL | 5812 ± 1632 ng/h/mL | 466.0 ± 109.7 mL/h | 199.0 ± 76.90 ng/mL | 1.500 ± 1.414 h | 37594 ± 9569 mL | 7223 ± 1727 ng/h/mL | 374.1 ± 82.69 mL/h | 261.9 ± 54.50 ng/mL | 0.714 ± 0.393 h | 28630 ± 3437 mL | CL (clinical; [2]): 423.5 ± 91.18 mL/h
CC(=O)CC(c1ccccc1)c1c(O)c2ccccc2oc1=O (centres unmarked) [Warfarin] |  |  |  |  |  |  |  |  |  |  |  |  |  |  |  |  |  |  |  | cells' viability [1]: significantly decreased; CL (clinical; both, human, in vivo, po, 3 mg): 144.9 ± 36.87 mL/h; Cmax (clinical; both, human, in vivo, po, 3 mg): 403 ± 148 ng/mL; Tmax (clinical; both, human, in vivo, po, 3 mg): 1.86 ± 1.44 h; Vd (clinical; both, human, in vivo, po, 3 mg): 13393 ± 3036 mL
